SMILES strings stand for the structures. Converted amounts (≈) assume the structure as drawn.

One experiment relates to HL-60. Put plainly: Growth inhibition of human HL60 cells after 72 hrs by MTT assay. Type of experiment: functional, cell-based. Conditions: HL-60, 72 h.
The subject of experiment [1] is PC-3. Put plainly: Antiproliferative activity against human PC3 cells after 24 hrs by MTT assay. Type of experiment: functional, cell-based. Conditions: PC-3, 24 h.
In experiment [2] the test system is PC-3. Put plainly: Antiproliferative activity against human PC3 cells after 48 hrs by MTT assay. The following applies: PC-3, 48 h. Type of experiment: functional, cell-based.
Experiment [3] concerns COLO 205. The experiment in a line: Induction of apoptosis in human COLO205 cells after 24 hrs. The class given is functional, cell-based. Conditions: COLO 205, 24 h.
Experiment [4] relates to COLO 205. The experiment in a line: Induction of apoptosis in human COLO205 cells after 24 hrs relative to control. The class given is functional.

As to `O=C1c2c(O)cc(O)cc2O[C@H](c2ccc(O)c(O)c2)[C@H]1O` [(+)-TAXIFOLIN], the IC50 with HL-60 lay in the range of 0.01 to 0.94 µg/mL (≈ 0.0329 to 3.09 µM).
On to `COc1ccc([C@@H]2CC(=O)c3c(O)cc(O)cc3O2)cc1O` [HESPERETIN], for which the IC50 amounted to 90 µM in the experiment with PC-3 [1] and 40 µM in the experiment with PC-3 [2].
In the case of `COc1ccc(-c2cc(=O)c3c(OC)c(OC)c(OC)c(OC)c3o2)cc1OC` [NOBILETIN], the IC50 in the experiment with HL-60 is 0.01 to 0.94 µg/mL (≈ 0.0249 to 2.34 µM).
In the experiment with HL-60, `O=c1c(O)c(-c2ccc(O)c(O)c2)oc2cc(O)cc(O)c12` [QUERCETIN] displayed an IC50 of 0.01 to 0.94 µg/mL (≈ 0.0331 to 3.11 µM).
`CC(C)c1cc2c(c(O)c1O)[C@@]13CCCC(C)(C)[C@@H]1[C@H](OC3=O)[C@H]2O` [ROSMANOL] had an IC50 in the experiment with COLO 205 [3] of 42 µM. The compound further displayed an Activity in the experiment on COLO 205 [4] of 51%.
As for `COc1ccc(-c2cc(=O)c3c(OC)c(OC)c(OC)c(OC)c3o2)cc1` [TANGERETIN], the IC50 in the experiment with HL-60 fell in the range of 0.01 to 0.94 µg/mL (≈ 0.0269 to 2.52 µM).

These data come from ChEMBL document CHEMBL4402519, “The Mediterranean Diet as source of bioactive compounds with multi-targeting anti-cancer profile” (Eur J Med Chem, 2019).
